According to patent publication US10583112B2, “Benzo[b]furans as bromodomain inhibitors” (GlaxoSmithKline Intellectual Property (No. 2) Limited, priority 2016, dated 2020):

How the values were obtained:
BRD4 BD1 = biological target: T1, BRD4 BD1 (Homo sapiens, UniProt O60885, Y390A); assay: BRD4 BD1 TR-FRET competition assay; format: binding; settings: mean, n given; read-out: pIC50 in the BRD4 BD1 TR-FRET assay (converted)
T1 construct: BRD4 (1-477) (Y97A) and (Y390A); made in house; host or cells: E. coli (pET15b vector)
Method: Bromodomain binding was assessed utilising a time resolved fluorescent resonance energy transfer (TR-FRET) competition assay. To enable this approach a known, high affinity, pan-BET interacting small molecule was labelled with Alexa Fluor® 647, which is a far-red-fluorescent dye (Reference Compound X). Reference Compound X acts as a reporter of bromodomain binding and is the acceptor fluorophore component of the TR-FRET pair. Europium chelate, conjugated to an anti-6*His antibody, was utilised as the donor fluorophore in the TR-FRET pair. […]
The competition of the compounds of formula (I) with Reference Compound X for binding to the BET family (BRD2, BRD3, BRD4 and BRDT) was assessed using protein truncates spanning both bromodomain 1 (BD1) and bromodomain 2 (BD2). […] Utilising a Fluorescence Polarisation approach, binding affinities for each of the single and double mutants for Reference Compound X were determined. […]
All assay components were dissolved in an assay buffer composing of 50 mM HEPES pH7.4, 50 mM NaCl, 5% Glycerol, 1 mM DTT and 1 mM CHAPS. […] TR-FRET was detected using a Perkin Elmer Multimode plate reader, by exciting the donor fluorophore at λ337 nm and subsequently, after a delay of 50 μsecs, measuring emission of the donor and acceptor fluorophores at λ615 nm and λ665 nm, respectively. […]

BRD4 BD2 = biological target: T2, BRD4 BD2 (Homo sapiens, UniProt O60885, Y97A); assay: BRD4 BD2 TR-FRET competition assay; format: binding; settings: for Selectivity for BRD4 BD2 over BRD4 BD1 (BRD4 BD2 pIC50 - BRD4 BD1 pIC50): in at least one of the TR-FRET assays; for fold selective for BRD4 BD2 over BRD4 BD1: inferred from the log unit selectivity; for IC50: mean where stated, n given, read-out: pIC50 in the BRD4 BD2 TR-FRET assay (converted)
T2 construct: BRD4 (1-477) (Y97A) and (Y390A); made in house; host or cells: E. coli (pET15b vector)
Method: Bromodomain binding was assessed utilising a time resolved fluorescent resonance energy transfer (TR-FRET) competition assay. […] Europium chelate, conjugated to an anti-6*His antibody, was utilised as the donor fluorophore in the TR-FRET pair.
In order to generate a TR-FRET signal, donor fluorophore is excited by a laser at λ337 nm, which subsequently leads to emission at λ618 nm.
In order to monitor differential binding to either BD1 or BD2, single residue mutations of key tyrosines to alanine were made in the acetyl lysine binding pockets. To validate this approach, a double residue mutant tandem domain protein was produced for each of the BET family members.
Final purification was completed by Superdex 200 prep grade size exclusion column. Purified protein was stored at −80° C. in 20 mM HEPES pH 7.5 and 100 mM NaCl.
All assay components were dissolved in an assay buffer composing of 50 mM HEPES pH7.4, 50 mM NaCl, 5% Glycerol, 1 mM DTT and 1 mM CHAPS. […] An equal volume of 3 nM of anti-6*His Europium chelate was added to all wells, followed by a further 30 minute incubation at room temperature. TR-FRET was detected using a Perkin Elmer Multimode plate reader, by exciting the donor fluorophore at λ337 nm and subsequently, after a delay of 50 μsecs, measuring emission of the donor and acceptor fluorophores at λ615 nm and λ665 nm, respectively.
cA four parameter curve fit of the following form was then applied: y=a+((b−a)/(1+(10^x/10^c)^d) • Where ‘a’ is the minimum, ‘b’ is the Hill slope, ‘c’ is the pIC50 and ‘d’ is the maximum.

[1] = tested on: double residue mutant tandem domain protein of each of the BET family members; assay: Fluorescence Polarisation binding affinity, double mutants; parameters: species or system Human
Method: (§1) The competition of the compounds of formula (I) with Reference Compound X for binding to the BET family (BRD2, BRD3, BRD4 and BRDT) was assessed using protein truncates spanning both bromodomain 1 (BD1) and bromodomain 2 (BD2). In order to monitor differential binding to either BD1 or BD2, single residue mutations of key tyrosines to alanine were made in the acetyl lysine binding pockets. To validate this approach, a double residue mutant tandem domain protein was produced for each of the BET family members. Utilising a Fluorescence Polarisation approach, binding affinities for each of the single and double mutants for Reference Compound X were determined. […] The affinities of the single mutated bromdomain tandem proteins for Reference Compound X were equi-potent with the corresponding non-mutated BET protein. […] In the TR-FRET competition assay, Reference Compound X is used at a concentration that is equivalent to the Kd for the non-mutated bromodomain, which ensures that no binding at the mutated bromodomain is detected. […]

[2] = tested on: single mutated bromodomain tandem proteins (BET family); assay: Fluorescence Polarisation binding affinity, single mutants; parameters: species or system Human
Method: as §1

Row | SMILES | IC50 (BRD4 BD2) [µM] | other results
1 | CNC(=O)c1cc(C(=O)N[C@H]2[C@@H]3CN(C(=O)OC(C)(C)C)C[C@@H]32)cc2c1O[C@H](C)[C@H]2c1ccccc1 [Example 38, (1R,5S,6S)-tert-Butyl 6-((2R,3S)-2-methyl-7-(methylcarbamoyl)-3-phenyl-2,3-dihydrobenzofuran-5-carboxamido)-3-azabicyclo[3.1.0]hexane-3-carboxylate] | 0.01 | IC50 (BRD4 BD1): 20 µM; Selectivity for BRD4 BD2 over BRD4 BD1 (BRD4 BD2 pIC50 - BRD4 BD1 pIC50) (BRD4 BD2): 3.3 log unit; fold selective for BRD4 BD2 over BRD4 BD1 (BRD4 BD2): at least 100 fold
2 | CNC(=O)c1cc(C(=O)NCCCC2CNCCO2)cc2c1O[C@H](C)[C@H]2c1ccccc1 (stereo partly drawn) [Example 54, (2R,3S)—N^7,2-Dimethyl-N^5-(3-(morpholin-2-yl)propyl)-3-phenyl-2,3-dihydrobenzofuran-5,7-dicarboxamide] | 0.0158 | IC50 (BRD4 BD1): 25.1 µM; Selectivity for BRD4 BD2 over BRD4 BD1 (BRD4 BD2 pIC50 - BRD4 BD1 pIC50) (BRD4 BD2): 3.2 log unit; fold selective for BRD4 BD2 over BRD4 BD1 (BRD4 BD2): at least 1000 fold
3 | CNC(=O)c1cc(C(=O)NCCc2cnn(C)c2)cc2c1O[C@@H](C)[C@@H]2c1ccccc1 [Example 188, (2S,3R)-N^7,2-dimethyl-N^5-(2-(1-methyl-1H-pyrazol-4-yl)ethyl)-3-phenyl-2,3-dihydrobenzofuran-5,7-dicarboxamide] | 1 to 100 | –
4 | CNC(=O)c1cc(C(=O)N[C@H]2[C@@H]3CN(C(C)=O)C[C@@H]32)cc2c1O[C@@H](C)[C@@H]2c1ccccc1 [Example 189, (2S,3R)-N^5-((1R,5S,6s)-3-acetyl-3-azabicyclo[3.1.0]hexan-6-yl)-N^7,2-dimethyl-3-phenyl-2,3-dihydrobenzofuran-5,7-dicarboxamide] | 1 to 100 | –
5 | CNC(=O)c1cc(C(=O)N[C@H]2[C@@H]3CN(C(C)=O)C[C@@H]32)cc2c1O[C@@H](CF)[C@@H]2c1ccccc1 [Example 190, (2R,3R)-N^5-((1R,5S,6s)-3-acetyl-3-azabicyclo[3.1.0]hexan-6-yl)-2-(fluoromethyl)-N^7-methyl-3-phenyl-2,3-dihydrobenzofuran-5,7-dicarboxamide] | 1 to 100 | –
6 | CNC(=O)c1cc(C(=O)Nc2ncn(C)n2)cc2c1O[C@@H](CF)[C@@H]2c1ccccc1 [Example 192, (2R,3R)-2-(fluoromethyl)-N^7-methyl-N^5-(1-methyl-1H-1,2,4-triazol-3-yl)-3-phenyl-2,3-dihydrobenzofuran-5,7-dicarboxamide] | 1 to 100 | –
7 | CNC(=O)c1cc(C(=O)Nc2ccnnc2)cc2c1O[C@@H](CF)[C@@H]2c1ccccc1 [Example 193, (2R,3R)-2-(fluoromethyl)-N^7-methyl-3-phenyl-N^5-(pyridazin-4-yl)-2,3-dihydrobenzofuran-5,7-dicarboxamide] | 1 to 100 | –
8 | CNC(=O)c1cc(C(=O)Nc2cn(C)nn2)cc2c1O[C@@H](CF)[C@@H]2c1ccccc1 [Example 194, (2R,3R)-2-(fluoromethyl)-N^7-methyl-N^5-(1-methyl-1H-1,2,3-triazol-4-yl)-3-phenyl-2,3-dihydrobenzofuran-5,7-dicarboxamide] | 1 to 100 | –
9 | CNC(=O)c1cc(C(=O)Nc2nncn2C)cc2c1O[C@@H](CF)[C@@H]2c1ccccc1 [Example 195, (2R,3R)-2-(fluoromethyl)-N^7-methyl-N^5-(4-methyl-4H-1,2,4-triazol-3-yl)-3-phenyl-2,3-dihydrobenzofuran-5,7-dicarboxamide] | 1 to 100 | –
10 | CNC(=O)c1cc(C(=O)Nc2cncnc2)cc2c1O[C@@H](CF)[C@@H]2c1ccccc1 [Example 200, (2R,3R)-2-(Fluoromethyl)-N^7-methyl-3-phenyl-N^5-(pyrimidin-5-yl)-2,3-dihydrobenzofuran-5,7-dicarboxamide] | 1 to 100 | –
11 | CNC(=O)c1cc(C(=O)N[C@H]2[C@@H]3COC[C@@H]32)cc2c1O[C@@H](C)[C@@H]2c1cccc(OCCOC)c1 [Example 201, (2S,3R)-N^5-((1R,5S,6r)-3-oxabicyclo[3.1.0]hexan-6-yl)-3-(3-(2-methoxyethoxy)phenyl)-N^7,2-dimethyl-2,3-dihydrobenzofuran-5,7-dicarboxamide] | 1 to 100 | –
12 | COc1ccc2c(c1)C(c1ccc(Cl)cc1)=N[C@@H](CC(=O)NCCCCCNC(=O)CCCCCC1(C)/C(=C/C=C/C=C/C3=[N+](CCCCS(=O)(=O)O)c4ccc(S(=O)(=O)O)cc4C3(C)C)N(CCCCS(=O)(=O)[O-])c3ccc(S(=O)(=O)O)cc31)c1nnc(C)n1-2 (stereo partly shown) [Reference Compound X] | – | reduction in Kd (affinity) versus non mutated, wild type tandem BET proteins [1]: > 1000 fold; affinity versus corresponding non-mutated BET protein [2]: equi-potent
